Values of other authors, collected in patent US7399860B2, “Manufacture of polyglutamate-therapeutic agent conjugates” (Cell Therapeutics Inc., priority 1999, dated 2008).

Tested on: tumor
Details: tumor-bearing hosts; U.S. Pat. No. 5,977,163; Li et al. 1998

Substance: polyglutamic acid-paclitaxel conjugate
- efficacy compared with the unconjugated form of the drug: increased efficacy
